# Measured values from ChEMBL document CHEMBL5579826, “Discovery of autophagy-tethering compounds as potent NLRP3 degraders for IBD Immunotherapy” (Eur J Med Chem, 2024).
# The source made the active and inactive calls. The calls are words filed in the database; no cut-off is given here.
# Tests used:
# [1] = target: Interleukin-1 beta (Homo sapiens) (UniProt P01584); assay: Inhibition of IL-1beta in PMA-differentiated human THP-1 cells at 100 nM co-incubated with compound and LPS for 24 hrs by ELISA relative to control; type: cell-based
# [2] = target: Interleukin-1 beta (Homo sapiens) (UniProt P01584); assay: Inhibition of IL-1beta in PMA-differentiated human THP-1 cells at 200 nM co-incubated with compound and LPS for 24 hrs by ELISA relative to control; type: cell-based
# THP-1 [3] = assay: Cytotoxicity against PMA-differentiated human THP-1 cells assessed as reduction in cell viability at 50 to 5000 nM incubated for 24 hrs by MTT assay; type: toxicity, cell-based; conditions: thp-1, 24 h, 5 µM, dose 50-5000 nM
# THP-1 [4] = assay: Effect on NLRP3 mRNA expression in PMA-differentiated human THP-1 cells co-incubated with compound and LPS for 24 hrs by qRT-PCR analysis; type: functional, cell-based
# [5] = Half life in C57BL/6J mouse at 5 mg/kg, iv measured for 24 hrs by LC-MS/MS analysis; type: ADME, organism-based; conditions: in vivo
# [6] = AUC (0 to t) in C57BL/6J mouse at 5 mg/kg, iv measured for 24 hrs by LC-MS/MS analysis; type: ADME, organism-based; conditions: in vivo
# [7] = AUC (0 to infinity) in C57BL/6J mouse at 5 mg/kg, iv measured for 24 hrs by LC-MS/MS analysis; type: ADME, organism-based; conditions: in vivo
# [8] = Apparent volume of distribution in C57BL/6J mouse at 5 mg/kg, iv measured for 24 hrs by LC-MS/MS analysis; type: ADME, organism-based; conditions: in vivo, read-out: Vz
# [9] = Clearance in C57BL/6J mouse at 5 mg/kg, iv measured for 24 hrs by LC-MS/MS analysis; type: ADME, organism-based; conditions: in vivo
# [10] = Volume of distribution at steady state in C57BL/6J mouse at 5 mg/kg, iv measured for 24 hrs by LC-MS/MS analysis; type: ADME, organism-based; conditions: in vivo, read-out: Vdss
# [11] = Half life in C57BL/6J mouse at 5 mg/kg, ip measured for 24 hrs by LC-MS/MS analysis; type: ADME, organism-based; conditions: in vivo
# [12] = Cmax in C57BL/6J mouse at 5 mg/kg, ip measured for 24 hrs by LC-MS/MS analysis; type: ADME, organism-based; conditions: in vivo
# [13] = AUC (0 to t) in C57BL/6J mouse at 5 mg/kg, ip measured for 24 hrs by LC-MS/MS analysis; type: ADME, organism-based; conditions: in vivo
# [14] = AUC (0 to infinity) in C57BL/6J mouse at 5 mg/kg, ip measured for 24 hrs by LC-MS/MS analysis; type: ADME, organism-based; conditions: in vivo
# [15] = Oral bioavailability in C57BL/6J mouse at 5 mg/kg measured for 24 hrs by LC-MS/MS analysis; type: ADME, organism-based; conditions: in vivo
# Mus musculus [16] = assay: Anti-inflammatory activity in DSS-induced colitis C57BL/6 mouse model assessed as reduction in weight loss at 5 to 20 mg/kg, ip administered daily for 10 days; type: functional, organism-based; conditions: dose 5-20 mg/kg, time 10.0 day
# Mus musculus [17] = assay: Anti-inflammatory activity in DSS-induced colitis C57BL/6 mouse model assessed as suppression of disease activity index administered intraperitoneally daily for 10 days; type: functional, organism-based; conditions: dose 5-20 mg/kg, route ip, time 10.0 day
# Mus musculus [18] = assay: Anti-inflammatory activity in DSS-induced colitis C57BL/6 mouse model assessed as reduction in colon tissue shortening at 5 to 20 mg/kg, ip administered daily for 10 days; type: functional, organism-based; conditions: dose 5-20 mg/kg, time 10.0 day
# Mus musculus [19] = assay: Anti-inflammatory activity in DSS-induced colitis C57BL/6 mouse model assessed as reduction in intestinal mucosal damage in colon tissue at 5 to 20 mg/kg, ip administered daily for 10 days by H and E staining based analysis; type: functional, organism-based; conditions: dose 5-20 mg/kg, time 10.0 day
# Mus musculus [20] = assay: Anti-inflammatory activity in DSS-induced colitis C57BL/6 mouse model assessed as reduction in inflammatory cell infiltration in colon tissue at 5 to 20 mg/kg, ip administered daily for 10 days by H and E staining based analysis; type: functional, organism-based; conditions: dose 5-20 mg/kg, time 10.0 day
# Mus musculus [21] = assay: Anti-inflammatory activity in DSS-induced colitis C57BL/6 mouse model assessed as reduction in loss of intestinal crypts in colon tissue at 5 to 20 mg/kg, ip administered daily for 10 days by H and E staining based analysis; type: functional, organism-based; conditions: dose 5-20 mg/kg, time 10.0 day
# Mus musculus [22] = assay: Anti-inflammatory activity in DSS-induced colitis C57BL/6 mouse model assessed as reduction in NLRP3 level in colon tissue at 5 to 20 mg/kg, ip administered daily for 10 days by IHC analysis; type: functional, organism-based; conditions: dose 5-20 mg/kg, time 10.0 day
# Mus musculus [23] = assay: Anti-inflammatory activity in DSS-induced colitis C57BL/6 mouse model assessed as reduction in IL-1beta level in colon tissue at 5 to 20 mg/kg, ip administered daily for 10 days by IHC analysis; type: functional, organism-based; conditions: dose 5-20 mg/kg, time 10.0 day
# Mus musculus [24] = assay: Anti-inflammatory activity in DSS-induced colitis C57BL/6 mouse model harboring NLRP3 KO assessed as reduction in colon length shortening at 20 mg/kg, ip administered daily for 10 days; type: functional, organism-based; conditions: time 10.0 day
# Mus musculus [25] = assay: Anti-inflammatory activity in DSS-induced colitis C57BL/6 mouse model harboring NLRP3 KO assessed as reduction in intestinal mucosal damage in colon tissue at 20 mg/kg, ip administered daily for 10 days by H and E staining based analysis; type: functional, organism-based; conditions: time 10.0 day
# Mus musculus [26] = assay: Anti-inflammatory activity in DSS-induced colitis C57BL/6 mouse model harboring NLRP3 KO assessed as reduction in inflammatory cell infiltration in colon tissue at 20 mg/kg, ip administered daily for 10 days by H and E staining based analysis; type: functional, organism-based; conditions: time 10.0 day
# Mus musculus [27] = assay: Anti-inflammatory activity in DSS-induced colitis C57BL/6 mouse model harboring NLRP3 KO assessed as reduction in loss of intestinal crypts in colon tissue at 20 mg/kg, ip administered daily for 10 days by H and E staining based analysis; type: functional, organism-based; conditions: time 10.0 day
# Mus musculus [28] = assay: Anti-inflammatory activity in DSS-induced colitis C57BL/6 mouse model harboring NLRP3 KO assessed as reduction in IL-1beta level at 20 mg/kg, ip administered daily for 10 days […]; type: functional, organism-based; conditions: time 10.0 day
# Sequence of Interleukin-1 beta (Homo sapiens) (P01584 117-269 limits assumed): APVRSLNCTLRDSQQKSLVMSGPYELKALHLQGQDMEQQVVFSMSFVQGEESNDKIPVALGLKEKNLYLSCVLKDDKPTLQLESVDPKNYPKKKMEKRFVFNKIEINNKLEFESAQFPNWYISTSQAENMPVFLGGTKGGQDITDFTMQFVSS
compound,measurement,setting,value
COc1cc(/C=C2/C(=O)N(CCCCCCCCCCCCOc3ccc(S(=O)(=O)NC(=O)Nc4c5c(cc6c4CCC6)CCC5)cc3)c3ccc(Br)cc32)cc(Br)c1O,inhibition,[1],20.4%
same,inhibition,[2],35.3%
O=C(Nc1c2c(cc3c1CCC3)CCC2)NS(=O)(=O)c1ccc(OCCCCCCCCCCCCN2C(=O)/C(=C/c3cc(Br)c(O)c(Br)c3)c3cc(I)ccc32)cc1,inhibition,[1],40.1%
same,inhibition,[2],7.9%
O=C(Nc1c2c(cc3c1CCC3)CCC2)NS(=O)(=O)c1ccc(OCCCCCCCCN2C(=O)/C(=C/c3cc(Br)c(O)c(Br)c3)c3cc(I)ccc32)cc1,inhibition,[1],41.9%
same,inhibition,[2],26.5%
COc1ccc(Cl)cc1C(=O)NCCc1ccc(S(=O)(=O)NCCOCCOCCOCCN2C(=O)/C(=C/c3cc(Br)c(O)c(OC)c3)c3cc(Br)ccc32)cc1,inhibition,[1],8.2%
same,inhibition,[2],-4.9%
COc1cc(/C=C2/C(=O)N(CCCCOc3ccc(S(=O)(=O)NC(=O)Nc4c5c(cc6c4CCC6)CCC5)cc3)c3ccc(Br)cc32)cc(Br)c1O,inhibition,[1],19.2%
same,inhibition,[2],40.8%
COc1cc(/C=C2/C(=O)N(CCOCCOc3ccc(S(=O)(=O)NC(=O)Nc4c5c(cc6c4CCC6)CCC5)cc3)c3ccc(Br)cc32)cc(Br)c1O,inhibition,[1],35.6%
same,inhibition,[2],59.2%
O=C(Nc1c2c(cc3c1CCC3)CCC2)NS(=O)(=O)c1ccc(OCCOCCOCCN2C(=O)/C(=C/c3cc(Br)c(O)c(Br)c3)c3cc(Br)ccc32)cc1,inhibition,[1],17.8%
same,inhibition,[2],45.2%
COc1cc(/C=C2/C(=O)N(CCOCCOCCOCCOc3ccc(S(=O)(=O)NC(=O)Nc4c5c(cc6c4CCC6)CCC5)cc3)c3ccc(Br)cc32)cc(Br)c1O,inhibition,[1],57.6%
same,inhibition,[2],32.7%
COc1ccc(Cl)cc1C(=O)NCCc1ccc(S(=O)(=O)NCCCCCCCCN2C(=O)/C(=C/c3cc(Br)c(O)c(OC)c3)c3cc(Br)ccc32)cc1,inhibition,[1],-7.2%
same,inhibition,[2],37.9%
COc1cc(/C=C2/C(=O)N(CCOCCOCCOc3ccc(S(=O)(=O)NC(=O)Nc4c5c(cc6c4CCC6)CCC5)cc3)c3ccc(Br)cc32)cc(Br)c1O,inhibition,[1],16.5%
same,inhibition,[2],39.1%
O=C(Nc1c2c(cc3c1CCC3)CCC2)NS(=O)(=O)c1ccc(OCCCCN2C(=O)/C(=C/c3cc(Br)c(O)c(Br)c3)c3cc(Br)ccc32)cc1,inhibition,[1],42.8%
same,inhibition,[2],49.2%
O=C(Nc1c2c(cc3c1CCC3)CCC2)NS(=O)(=O)c1ccc(OCCCCCCCCCCCCN2C(=O)/C(=C/c3cc(Br)c(O)c(Br)c3)c3cc(Br)ccc32)cc1,inhibition,[1],14.8%
same,inhibition,[2],19.5%
O=C(Nc1c2c(cc3c1CCC3)CCC2)NS(=O)(=O)c1ccc(OCCOCCOCCOCCN2C(=O)/C(=C/c3cc(Br)c(O)c(Br)c3)c3cc(I)ccc32)cc1,inhibition,[1],45.8%
same,inhibition,[2],73.6%
same,Activity,THP-1 [3],Non-Toxic
same,Activity,THP-1 [4],inactive
same,half-life,[5],0.94 h
same,AUC(0-t) at 24 h,[6],2960 ng·h/mL
same,AUC(0-inf),[7],2970 ng·h/mL
same,Vd,[8],2.31 L/kg
same,clearance,[9],28.4 mL/min/kg
same,Vd,[10],0.39 L/kg
same,half-life,[11],1.26 h
same,Cmax,[12],555 ng/mL
same,AUC(0-t) at 24 h,[13],551 ng·h/mL
same,AUC(0-inf),[14],562 ng·h/mL
same,bioavailability,[15],19%
same,Activity,Mus musculus [16],Active
same,Activity,Mus musculus [17],Dose-Dependent Effect
same,Activity,Mus musculus [18],Active
same,Activity,Mus musculus [19],Active
same,Activity,Mus musculus [20],Active
same,Activity,Mus musculus [21],Active
same,Activity,Mus musculus [22],Active
same,Activity,Mus musculus [23],Active
same,Activity,Mus musculus [24],inactive
same,Activity,Mus musculus [25],inactive
same,Activity,Mus musculus [26],inactive
same,Activity,Mus musculus [27],inactive
same,Activity,Mus musculus [28],inactive
O=C(Nc1c2c(cc3c1CCC3)CCC2)NS(=O)(=O)c1ccc(OCCOCCN2C(=O)/C(=C/c3cc(Br)c(O)c(Br)c3)c3cc(I)ccc32)cc1,inhibition,[1],70.4%
same,inhibition,[2],98.2%
COc1ccc(Cl)cc1C(=O)NCCc1ccc(S(=O)(=O)NCCOCCOCCN2C(=O)/C(=C/c3cc(Br)c(O)c(OC)c3)c3cc(Br)ccc32)cc1,inhibition,[1],11%
same,inhibition,[2],43.1%
O=C(Nc1c2c(cc3c1CCC3)CCC2)NS(=O)(=O)c1ccc(OCCOCCOCCN2C(=O)/C(=C/c3cc(Br)c(O)c(Br)c3)c3cc(I)ccc32)cc1,inhibition,[1],50.5%
same,inhibition,[2],41.7%
COc1ccc(Cl)cc1C(=O)NCCc1ccc(S(=O)(=O)NCCOCCN2C(=O)/C(=C/c3cc(Br)c(O)c(OC)c3)c3cc(Br)ccc32)cc1,inhibition,[1],39%
same,inhibition,[2],23.1%
O=C(Nc1c2c(cc3c1CCC3)CCC2)NS(=O)(=O)c1ccc(OCCCCCCCCN2C(=O)/C(=C/c3cc(Br)c(O)c(Br)c3)c3cc(Br)ccc32)cc1,inhibition,[1],-5.3%
same,inhibition,[2],39.6%
O=C(Nc1c2c(cc3c1CCC3)CCC2)NS(=O)(=O)c1ccc(OCCOCCN2C(=O)/C(=C/c3cc(Br)c(O)c(Br)c3)c3cc(Br)ccc32)cc1,inhibition,[1],20.5%
same,inhibition,[2],67.3%
O=C(Nc1c2c(cc3c1CCC3)CCC2)NS(=O)(=O)c1ccc(OCCOCCOCCOCCN2C(=O)/C(=C/c3cc(Br)c(O)c(Br)c3)c3cc(Br)ccc32)cc1,inhibition,[1],6.7%
same,inhibition,[2],66.6%
COc1ccc(Cl)cc1C(=O)NCCc1ccc(S(=O)(=O)NCCCCCN2C(=O)/C(=C/c3cc(Br)c(O)c(OC)c3)c3cc(Br)ccc32)cc1,inhibition,[1],50.4%
same,inhibition,[2],36.2%
COc1cc(/C=C2/C(=O)N(CCCCCCCCOc3ccc(S(=O)(=O)NC(=O)Nc4c5c(cc6c4CCC6)CCC5)cc3)c3ccc(Br)cc32)cc(Br)c1O,inhibition,[1],27.7%
same,inhibition,[2],19.2%
O=C(Nc1c2c(cc3c1CCC3)CCC2)NS(=O)(=O)c1ccc(OCCCCN2C(=O)/C(=C/c3cc(Br)c(O)c(Br)c3)c3cc(I)ccc32)cc1,inhibition,[1],43.1%
same,inhibition,[2],48.5%
COc1ccc(Cl)cc1C(=O)NCCc1ccc(S(=O)(=O)NCCCCCCCCCCN2C(=O)/C(=C/c3cc(Br)c(O)c(OC)c3)c3cc(Br)ccc32)cc1,inhibition,[1],7.3%
same,inhibition,[2],28%
